Source: EPA's CvTdb concentration-time database (doi:10.1093/toxsci/kfy020)

Experiments:
Experiment in all cases: concentration in plasma after dosing
rat [1] = details: male, Sprague-Dawley
rat [2] = details: dosed: Bisphenol A, 0.6000000000 mg/kg, iv, male, Sprague-Dawley
rat [3] = details: dosed: Bisphenol A, 0.6000000000 mg/kg, iv, male, Sprague-Dawley; remark: listed apart in the source
rat [4] = details: dosed: Dimethenamid, 5.0000000000 mg/kg, oral, male, Sprague-Dawley
rat [5] = details: dosed: Dimethenamid, 1.0000000000 mg/kg, iv, male, Sprague-Dawley
rat [6] = details: dosed: Dimethenamid, 1.0000000000 mg/kg, iv, male, Sprague-Dawley; remark: listed apart in the source
rat [7] = details: dosed: Dimethenamid, 5.0000000000 mg/kg, oral, male, Sprague-Dawley; remark: listed apart in the source
rat [8] = details: 8 h; dosed: Dimethenamid; 5.0000000000 mg/kg; oral; male; Sprague-Dawley
rat [9] = details: dosed: Etoxazole, 2.0000000000 mg/kg, oral, male, Sprague-Dawley
rat [10] = details: dosed: Etoxazole, 0.4000000000 mg/kg, iv, male, Sprague-Dawley
rat [11] = details: dosed: Etoxazole, 2.0000000000 mg/kg, oral, male, Sprague-Dawley; remark: listed apart in the source
rat [12] = details: dosed: Etoxazole, 0.4000000000 mg/kg, iv, male, Sprague-Dawley; remark: listed apart in the source
rat [13] = details: dosed: Etoxazole, 2.0000000000 mg/kg, oral, male, Sprague-Dawley; remark: listed apart in the source
rat [14] = details: dosed: Etoxazole, 2.0000000000 mg/kg, oral, male, Sprague-Dawley; remark: listed apart in the source
rat [15] = details: dosed: Etoxazole, 0.4000000000 mg/kg, iv, male, Sprague-Dawley; remark: listed apart in the source
rat [16] = details: dosed: Permethrin, 5.0000000000 mg/kg, oral, male, Sprague-Dawley
rat [17] = details: dosed: Permethrin, 1.0000000000 mg/kg, iv, male, Sprague-Dawley
rat [18] = details: dosed: Permethrin, 1.0000000000 mg/kg, iv, male, Sprague-Dawley; remark: listed apart in the source
rat [19] = details: dosed: Permethrin, 5.0000000000 mg/kg, oral, male, Sprague-Dawley; remark: listed apart in the source
rat [20] = details: dosed: Permethrin, 5.0000000000 mg/kg, oral, male, Sprague-Dawley; remark: listed apart in the source
rat [21] = details: dosed: Permethrin, 5.0000000000 mg/kg, oral, male, Sprague-Dawley; remark: listed apart in the source
rat [22] = details: dosed: Permethrin, 5.0000000000 mg/kg, oral, male, Sprague-Dawley; remark: listed apart in the source

CC(C)(c1ccc(O)cc1)c1ccc(O)cc1 [Bisphenol A]
rat [1], dosed: Bisphenol A, 0.6000000000 mg/kg, iv
Details	concentration in plasma [ng/mL]
0.5 h	85.6
1 h	29.2
5 min	392
10 min	302

concentration in plasma [ng/mL]
Details	0.5 h	1 h	5 min	10 min
rat [2]	94.3	30.7	310	151
rat [3]	60.5	34.5	299	189

COCC(C)N(C(=O)CCl)c1c(C)csc1C (stereo unspecified) [Dimethenamid]
rat [1], dosed: Dimethenamid
Details	concentration in plasma [ng/mL]
0.25 h, 5.0000000000 mg/kg, oral	5.3
0.5 h, 1.0000000000 mg/kg, iv	19.3
0.5 h, 5.0000000000 mg/kg, oral	2
1 h, 1.0000000000 mg/kg, iv	7
1 h, 5.0000000000 mg/kg, oral	1.3
2 h, 1.0000000000 mg/kg, iv	1.4
2 h, 5.0000000000 mg/kg, oral	1.9
4 h, 1.0000000000 mg/kg, iv	0.8
4 h, 5.0000000000 mg/kg, oral	1.2
5 min, 1.0000000000 mg/kg, iv	115
8 h, 1.0000000000 mg/kg, iv	0.3
8 h, 5.0000000000 mg/kg, oral	0.5
10 min, 1.0000000000 mg/kg, iv	60.7
12 h, 5.0000000000 mg/kg, oral	0.3
24 h, 5.0000000000 mg/kg, oral	0.3
48 h, 5.0000000000 mg/kg, oral	0.3
72 h, 5.0000000000 mg/kg, oral	0.5

concentration in plasma [ng/mL]
Details	rat [4]	rat [5]	rat [6]	rat [7]
0.25 h	1.8	–	–	0.6
0.5 h	1.4	20.9	14.9	0.5
1 h	0.6	7.4	6.2	–
2 h	0.7	2.1	1.9	0.6
4 h	1	0.8	0.6	0.6
5 min	–	193	91.9	–
8 h	0.5	–	–	0.2
10 min	–	110	38.1	–
24 h	0.2	–	–	–
48 h	0.3	–	–	–
72 h	0.3	–	–	–

Details	concentration in plasma [ng/mL]
rat [8]	287

CCOc1cc(C(C)(C)C)ccc1C1COC(c2c(F)cccc2F)=N1 (stereo unspecified) [Etoxazole]
rat [1], dosed: Etoxazole
Details	concentration in plasma [ng/mL]
0.25 h, 2.0000000000 mg/kg, oral	36
0.5 h, 0.4000000000 mg/kg, iv	31.1
0.5 h, 2.0000000000 mg/kg, oral	41.2
1 h, 0.4000000000 mg/kg, iv	14
1 h, 2.0000000000 mg/kg, oral	49.5
2 h, 0.4000000000 mg/kg, iv	3.62
2 h, 2.0000000000 mg/kg, oral	23.7
4 h, 0.4000000000 mg/kg, iv	1.53
4 h, 2.0000000000 mg/kg, oral	8.72
5 min, 0.4000000000 mg/kg, iv	145
8 h, 0.4000000000 mg/kg, iv	0.14
8 h, 2.0000000000 mg/kg, oral	11.7
10 min, 0.4000000000 mg/kg, iv	86.3
12 h, 2.0000000000 mg/kg, oral	1.84
24 h, 2.0000000000 mg/kg, oral	0.61
48 h, 2.0000000000 mg/kg, oral	0.15
72 h, 2.0000000000 mg/kg, oral	0.11

concentration in plasma [ng/mL]
Details	rat [9]	rat [10]	rat [11]	rat [12]	rat [13]	rat [14]	rat [15]
0.25 h	14.6	–	9.12	–	15.8	15.1	–
0.5 h	23	60	16.8	20.5	18.5	22.4	43.6
1 h	33.7	18.9	25.3	7.3	23.8	29.7	15.7
2 h	24.3	4.7	31	2.78	7.62	31.5	4.19
4 h	11.9	0.86	9.37	1.69	2.16	13.6	1.89
5 min	–	142	–	78.2	–	–	126
8 h	10.3	0.54	–	0.69	4.85	5.34	0.28
10 min	–	66.8	–	50.2	–	–	72.5
12 h	1.45	–	–	0.56	1.6	1	–
24 h	0.53	0.36	–	0.3	0.18	0.46	–
48 h	0.12	–	–	0.14	–	0.2	–
72 h	0.13	–	–	–	–	0.16	–

CC1(C)C(C=C(Cl)Cl)C1C(=O)OCc1cccc(Oc2ccccc2)c1 (stereo unspecified) [Permethrin]
concentration in plasma [ng/mL], rat [1], dosed: Permethrin
Details	0.5 h	1 h	2 h	4 h	8 h	10 min	12 h	48 h
1.0000000000 mg/kg, iv	–	6.7	–	–	–	15.9	–	–
5.0000000000 mg/kg, oral	44.4	64.2	71	53.2	26.1	15	8.4	5.2

concentration in plasma [ng/mL]
Details	0.25 h	0.5 h	1 h	2 h	4 h	8 h	10 min	12 h
rat [16]	–	37	54.2	62.2	48.5	12.3	10.1	1.5
rat [17]	–	–	–	–	–	–	3	2.9
rat [18]	–	–	9.5	–	2.1	–	–	–
rat [19]	–	8.1	15.2	15.9	–	–	–	–
rat [20]	–	7.1	10.5	14.9	16	7.8	–	3.3
rat [21]	21.3	15.7	18.3	21.5	28.4	15.1	–	–
rat [22]	–	33.4	87.2	40.8	27.2	–	–	–
